Measured values: patent US9149038B2, “4-amino-6-(heterocyclic)picolinates and 6-amino-2-(heterocyclic)pyrimidine-4-carboxylates and their use as herbicides” (Dow AgroSciences LLC, priority 2013, dated 2015)
Where two headings read alike, the source gives them in different places.

Assays:
[1] = test system: Key Grass and Sedge Weeds as well as Grass Crops; experiment: Post-Emergent Test II: postemergent herbicidal activity, visual rating after 14 d (Table 8); type: in vivo; conditions: post-emergence, 336 h; for pest or weed control at 35 g/ha: 35 g ai/ha; for pest or weed control at 70 g/ha: 70 g ai/ha; for pest or weed control at 140 g/ha: 140 g ai/ha
Outline: (§1)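 Scoring is visual, 0-100, at 14 d after application, comparing treated with untreated plants. Application: overhead track spray at 187 L/ha onto seedlings at 1-2 true leaves, in surfactant/crop-oil carrier.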

[2] = test system: Key Broadleaf Weed and Crop Species; experiment: Post-Emergent Test II: postemergent herbicidal activity, visual rating after 14 d (Table 7); type: in vivo; conditions: post-emergence, 336 h; for pest or weed control at 35 g/ha: 35 g ai/ha; for pest or weed control at 70 g/ha: 70 g ai/ha; for pest or weed control at 140 g/ha: 140 g ai/ha
Outline: as §1

[3] = barnyardgrass (Echinochloa crus-galli), read-out: Visual Growth Reduction (%) 14 Days After Application ECHCG
[4] = giant foxtail (Setaria faberi), read-out: Visual Growth Reduction (%) 14 Days After Application SETFA
[5] = maize, corn (Zea mays), read-out: Visual Growth Reduction (%) 14 Days After Application ZEAMX
[6] = rice (Oryza sativa), read-out: Visual Growth Reduction (%) 14 Days After Application ORYSA
[7] = wheat, spring (Triticum aestivum), read-out: Visual Growth Reduction (%) 14 Days After Application TRZAS
[8] = yellow nutsedge (Cyperus esculentus), read-out: Visual Growth Reduction (%) 14 Days After Application CYPES
[9] = lambsquarters (Chenopodium album), read-out: Visual Growth Reduction (%) 14 Days After Application CHEAL
[10] = oilseed rape, canola (Brassica napus), read-out: Visual Growth Reduction (%) 14 Days After Application BRSNN
[11] = redroot pigweed (Amaranthus retroflexus), read-out: Visual Growth Reduction (%) 14 Days After Application AMARE
[12] = sunflower (Helianthus annuus), read-out: Visual Growth Reduction (%) 14 Days After Application HELAN
[13] = velvetleaf (Abutilon theophrasti), read-out: Visual Growth Reduction (%) 14 Days After Application ABUTH
[14] = wild poinsettia (Euphorbia heterophylla), read-out: Visual Growth Reduction (%) 14 Days After Application EPHHL

SMILES | pest or weed control at 35 g/ha [1, 3] | pest or weed control at 70 g/ha [1, 3] | pest or weed control at 140 g/ha [1, 3] | pest or weed control at 35 g/ha [1, 4] | pest or weed control at 70 g/ha [1, 4] | pest or weed control at 140 g/ha [1, 4] | pest or weed control at 35 g/ha [1, 5] | pest or weed control at 70 g/ha [1, 5] | pest or weed control at 140 g/ha [1, 5] | pest or weed control at 35 g/ha [1, 6] | pest or weed control at 70 g/ha [1, 6] | pest or weed control at 140 g/ha [1, 6] | pest or weed control at 35 g/ha [1, 7] | pest or weed control at 70 g/ha [1, 7] | pest or weed control at 140 g/ha [1, 7] | pest or weed control at 35 g/ha [1, 8] | pest or weed control at 70 g/ha [1, 8] | pest or weed control at 140 g/ha [1, 8] | pest or weed control at 35 g/ha [2, 9] | pest or weed control at 70 g/ha [2, 9] | further results
COC(=O)c1nc(-c2c(F)cc3c(c2F)OC(F)(F)O3)cc(N)c1Cl [Compound 46] | 45 to 59% | 60 to 74% | 85 to 94% | 0 to 29% | 0 to 29% | 0 to 29% | 0 to 29% | 45 to 59% | 75 to 84% | 0 to 29% | 0 to 29% | 0 to 29% | 0 to 29% | 30 to 44% | 45 to 59% | 95 to 100% | 95 to 100% | 95 to 100% | 95 to 100% | 95 to 100% | pest or weed control at 140 g/ha [2, 9]: 95 to 100%; pest or weed control at 35 g/ha [2, 10]: 95 to 100%; pest or weed control at 70 g/ha [2, 10]: 95 to 100%; pest or weed control at 140 g/ha [2, 10]: 95 to 100%; pest or weed control at 35 g/ha [2, 11]: 95 to 100%; pest or weed control at 70 g/ha [2, 11]: 95 to 100%; pest or weed control at 140 g/ha [2, 11]: 95 to 100%; pest or weed control at 35 g/ha [2, 12]: 0 to 29%; pest or weed control at 70 g/ha [2, 12]: 30 to 44%; pest or weed control at 140 g/ha [2, 12]: 60 to 74%; pest or weed control at 35 g/ha [2, 13]: 85 to 94%; pest or weed control at 70 g/ha [2, 13]: 95 to 100%; pest or weed control at 140 g/ha [2, 13]: 95 to 100%; pest or weed control at 35 g/ha [2, 14]: 30 to 44%; pest or weed control at 70 g/ha [2, 14]: 60 to 74%; pest or weed control at 140 g/ha [2, 14]: 85 to 94%
COC(=O)c1nc(-c2ccc(Br)c3c2OC(F)(F)O3)c(F)c(N)c1Cl [Compound 78, Methyl 4-amino-6-(7-bromo-2,2-difluorobenzo[d][1,3]dioxol-4-yl)-3-chloro-5-fluoropicolinate] | 0 to 29% | 0 to 29% | 0 to 29% | 0 to 29% | 0 to 29% | 0 to 29% | 60 to 74% | 60 to 74% | 60 to 74% | 0 to 29% | 0 to 29% | 0 to 29% | 0 to 29% | 0 to 29% | 0 to 29% | 0 to 29% | 0 to 29% | 0 to 29% | 95 to 100% | 95 to 100% | pest or weed control at 140 g/ha [2, 9]: 95 to 100%; pest or weed control at 35 g/ha [2, 10]: 60 to 74%; pest or weed control at 70 g/ha [2, 10]: 75 to 84%; pest or weed control at 140 g/ha [2, 10]: 75 to 84%; pest or weed control at 35 g/ha [2, 11]: 95 to 100%; pest or weed control at 70 g/ha [2, 11]: 95 to 100%; pest or weed control at 140 g/ha [2, 11]: 95 to 100%; pest or weed control at 35 g/ha [2, 12]: 95 to 100%; pest or weed control at 70 g/ha [2, 12]: 95 to 100%; pest or weed control at 140 g/ha [2, 12]: 95 to 100%; pest or weed control at 35 g/ha [2, 13]: 85 to 94%; pest or weed control at 70 g/ha [2, 13]: 85 to 94%; pest or weed control at 140 g/ha [2, 13]: 85 to 94%; pest or weed control at 35 g/ha [2, 14]: 0 to 29%; pest or weed control at 70 g/ha [2, 14]: 0 to 29%; pest or weed control at 140 g/ha [2, 14]: 0 to 29%
